Source: patent US20250170212A1, “COMPOSITIONS AND METHODS OF TREATING AMYOTROPHIC LATERAL SCLEROSIS (ALS) AND RELATED DISORDERS” (BIOINCEPT, LLC, priority 2022, published 2025)

How the values were obtained:
[1] = system: NeuN positive cells (mature neurons); test: Immunohistochemistry of mature neurons in brainstem motor nuclei; format: in vivo, mouse; conditions: facial and hypoglossal motor nuclei; compared to Injury
Description: At the end of experiment, mice were subjected to full body perfusion with 20% sucrose and 10% buffered formalin suitable for histology assays (Sigma Aldrich, St.Louis, MO, USA). Mice were decapitated and incubated in formalin for 24 h. Following the tissues (brain and spinal cord) were isolated, paraffin fixed for further analyses. After brain removal, the tissue was fixed in a formaldehyde solution (4%) for 2-4 hours at RT followed by 4° C. for a total time of 24-48 hours. Fixed tissues were embedded in paraffin and finally sectioned into 7 μm slices. […]
Assessment of neuronal and microglial positive cells were performed in the region of interest (ROI). […] The images were analyzed and reconstructed using Image J (US National Institutes of Health).
All quantifications were performed including the manual cell counts in a blinded manner. The NeuN and Ibal were counted as positive cells in the ROI (see above) as previously reported. The number of cells was determined by unbiased counting of positive cells. […] Differences between groups were analyzed using a repeated measure ANOVA model with a fixed effect for the group, of the time and a random intercept for the mouse. In a second, more explorative, approach for each group the time when the physical activity was first measured below a certain threshold was determined. […]

[2] = system: GFP+ mGRPs, GFAP+ astrocytes, OLIG2+ oligodendrocytes
Description: Paraffin slides of the brain tissue after heated in 1 h in 60° C. were deparaffinized in: 1×10 min. Xylen I, 1×10 min Xylen II, 1×10 min EtOH 100%, 1×10 min EtOH 70%, 1×10 min EtOH 40%, 1×10 min dest. H2O. The target was retrieved in Citrate Buffer+Tween 20 (10 mM, pH=6.0) in a water bath for 20 minutes in 97° C. and then they were let cool down for another 20 minutes. Slides were washed in PBS three times and blocked 1 hour in 10% Goat serum+1% bovine albumin serum. All slides was incubated overnight at 4° C. with a first primary mouse Anti-GFP antibody 1:500 (Abcam Cat #ab1218, RRID: AB_298911). Washed three times with PBS, then secondary antibody Goat Anti-Mouse IgG H&L (Alexa Fluor® 488) in concentration 1:700 (Abcam Cat #ab 150117, RRID: AB_2688012) was applied for 40 min in RT. Then one part of the slides was washed three times in PBS and the second primary Rabbit Anti-GFAP antibody (Abcam Cat #ab7260, RRID: AB_305808) was applied 1:1000, incubated overnight at 4° C. After that the secondary antibody Goat Anti-Rabbit IgG H&L (Alexa Fluor® 594) (Abcam Cat #ab 150080, RRID: AB_2650602) was applied for 40 min RT in concentration 1:700. The second part of the slides was incubated with Rabbit Recombinant Anti-Olig2 antibody (Abcam Cat #ab109186, RRID: AB_10861310) 1:100 incubated overnight in 4° C. Next day the secondary antibody Goat Anti-Rabbit IgG H&L (Alexa Fluor® 594) (Abcam Cat #ab150080, RRID: AB_2650602) was applied for 40 min RT in 1:700 concentration. […] The slides were washed in PBS, mounted with DAKO mounting medium (Agilent Technologies, Santa Clara, CA, United States) and analyzed under Leica DM5500 fluorescent microscopy with LAS X software.

immature brain injury = conditions: murine model of immature brain injury; cited from earlier work
[3] = whole cross section of the mouse diencephalon

MVRIKPGSANKPSDD [sPIF]
number of mature neurons (NeuN positive cells) [1]: significant protection of neuronal cells | mGRPs progeny: GFP+ astrocytes and oligodendrocytes in brain parenchyma ([2]; diencephalon, day 56): few GFP+ astrocytes and oligodendrocytes in the brain parenchyma | area of astrocytes (GFAP+) [2, 3]: significantly larger area of astrocytes | area of oligodendrocytes (OLIG2+) [2, 3]: larger area of oligodendrocytes | neuronal loss and microglial activation (immature brain injury): mitigate neuronal loss and microglial activation
